Test results taken from a melting point compilation (Tetko et al.; mined from patent text by program, amines drawn as free bases though some values may be those of a salt).

Question: For `COc1ccc(C(=O)Nc2ccccc2)cc1NC(=S)Nc1cccc(C)c1`, which melting point is on record?
Answer: The melting point was 168 to 171 °C.

Question: Which melting point does the source give for `Cc1cccc(NC(=O)NCC(=O)N2[C@@H](C(=O)N(C)c3ccccc3)CC[C@H]2c2ccccc2)c1` (racemic) here?
Answer: The melting point was 210 °C.

Question: Which melting point does the source give for `N#Cc1cccc(-c2nc(N)cc3cccnc23)c1` here?
Answer: Its melting point is 102 to 104 °C.

Question: With `CCOC(=O)C1=C(C)NC(=S)N(S(C)(=O)=O)C1c1cccc([N+](=O)[O-])c1` (configuration not stated) as the compound, how does the melting point read?
Answer: The melting point was 161 to 163 °C.

Question: With `CCOP(=S)(OCC)ON=C1C=CC(=C(C#N)c2ccccc2)C=C1` as the compound, how does the melting point read?
Answer: The melting point was 66 to 82 °C.

Question: Which melting point does the source give for `CC(C)(C)c1cc2c(c(C(=O)Nc3ccc(S(=O)(=O)C(F)(F)F)cc3Cl)c1O)CCCC2` here?
Answer: The melting point was 151 °C.

Question: Which melting point does the source give for `Cc1ccc(Cl)cc1NC(=O)NCC1(c2ccccc2)CCCCC1` here?
Answer: Its melting point is 200 to 202 °C.

Question: For `O=S(=O)(c1ccc(Cl)cc1)C(c1ccc(CN2CCCCC2)cn1)c1cc(F)ccc1F` (configuration not stated), which melting point is on record?
Answer: The melting point was 113 to 114 °C.

Question: With `CN(c1ccccc1)S(=O)(=O)c1ccc(C#CC(C)(O)C(F)(F)F)cc1` (configuration not stated) as the compound, how does the melting point read?
Answer: The melting point was 116 to 118 °C.

Question: With `O=[N+]([O-])c1ccccc1-c1cnoc1` as the compound, how does the melting point read?
Answer: The melting point was 51 to 54 °C.

Question: With `COC(=O)COc1ccc(N)cc1` as the compound, how does the melting point read?
Answer: Its melting point is 65 to 66.8 °C.

Question: Which melting point does the source give for `O=Cc1ccccc1Oc1ccc(I)cc1` here?
Answer: The melting point was 84.5 to 86 °C.

Question: Which melting point does the source give for `Cc1ccccc1C(CCC(=O)NS(=O)(=O)c1ccccc1)Oc1cc(OCc2ccsc2)ccc1C#N` (racemic) here?
Answer: The melting point was 68 to 70 °C.

Question: With `Cc1c(F)cc(C(=O)NC2CC2)cc1-n1cc(Br)nc(NC2(c3ccccc3OCCN(C)C(=O)OCc3ccccc3)CC2)c1=O` as the compound, how does the melting point read?
Answer: Its melting point is 116 to 120 °C.

Question: For `Cc1ccccc1C(=O)Nc1ccc(C(=O)N2c3ccccc3CCc3ccccc32)cc1`, which melting point is on record?
Answer: Its melting point is 112 to 118 °C.

Question: For `O=C(CCCl)Nc1ccc(F)c(Cl)c1`, which melting point is on record?
Answer: The melting point was 94 °C.

Question: With `CCCCc1nc2c(N)nc3ccccc3c2n1CCCNC(=S)Nc1ccccc1` as the compound, how does the melting point read?
Answer: The melting point was 143 to 144 °C.

Question: With `O=C1CCC(N2Cc3c(OCc4cc(Cl)cc(Cl)c4)cccc3C2=O)C(=O)N1` (configuration not stated) as the compound, how does the melting point read?
Answer: Its melting point is 271 to 273 °C.

Question: Which melting point does the source give for `Cc1c(-c2ccccc2)oc2c(SCCCCl)cccc2c1=O` here?
Answer: The melting point was 84 to 86 °C.

Question: For `CC(O)(C(=O)O)c1ccc2c(c1)[nH]c1ccc(Cl)cc12` (configuration not stated), which melting point is on record?
Answer: The melting point was 218 to 220 °C.

Question: Which melting point does the source give for `NC(=O)c1ccc(F)c2c1CC(NCCCc1c[nH]c3ccc(Cl)cc13)CO2` (configuration not stated) here?
Answer: Its melting point is 218 to 221 °C.

Question: With `CCOC(=O)c1cnc2c(F)c(F)c(F)cc2c1Cl` as the compound, how does the melting point read?
Answer: The melting point was 110 to 112 °C.

Question: With `CN1CCCC1=NC(=O)Nc1cccc(Br)c1` as the compound, how does the melting point read?
Answer: Its melting point is 138 to 149 °C.

Question: For `CCCc1n[nH]cc1-c1nsc(Nc2ccccn2)n1`, which melting point is on record?
Answer: The melting point was 248 to 250 °C.

Question: For `CCCCCN1Cc2cccc(Cl)c2S1(=O)=O`, which melting point is on record?
Answer: Its melting point is 46 to 48 °C.

Question: For `CC(C)(CO)CCCCC(CCCCC(C)(C)CO)(C(=O)O)C(=O)O`, which melting point is on record?
Answer: The melting point was 178 to 180 °C.

Question: With `COc1ccc(C2(C#Cc3nccn3C)CCC(=O)CC2)cc1OC1CCCC1` as the compound, how does the melting point read?
Answer: Its melting point is 137 to 138 °C.

Question: With `Cc1oc(-c2ccccc2)nc1COc1ccc(CON=C(C(=O)O)C(C)C)cc1` as the compound, how does the melting point read?
Answer: Its melting point is 128 to 129 °C.

Question: With `CN1C(=O)CN=C(c2ccccc2F)c2c1ccc(NC(=O)NCCO)c2Cl` as the compound, how does the melting point read?
Answer: Its melting point is 150 to 153 °C.

Question: Which melting point does the source give for `Nc1cc(=O)n(Cc2ccc(OC(F)(F)F)cc2)[nH]1` here?
Answer: Its melting point is 99 °C.

Question: Which melting point does the source give for `c1c2c(cc3c1OCO3)CCNCC2` here?
Answer: The melting point was 82 to 84 °C.

Question: For `CC(=O)OC1CC2(C)C(Sc3ccccc3)=CCC2C2CCC3=CC(=O)C=CC3(C)C12F` (configuration not stated), which melting point is on record?
Answer: Its melting point is 229 to 231 °C.

Question: With `CN1CCC(O)(c2ccccc2N)CC1` as the compound, how does the melting point read?
Answer: The melting point was 135 to 136 °C.

Question: Which melting point does the source give for `CC(=O)Nc1cccc2c(-c3ccc(=O)n(C(C)C)n3)c(-c3ccccc3)nn12` here?
Answer: Its melting point is 92 to 96 °C.

Question: With `Cc1[nH]c2ccc(O)cc2c1C(=O)NC1CCN(CCCc2ccccc2)CC1` as the compound, how does the melting point read?
Answer: Its melting point is 181 to 184 °C.

Question: With `Cc1cccc(C(=O)NO)c1N(C)S(=O)(=O)c1ccc(OCCCCNC(=O)c2ccc3c(c2)OCO3)cc1` as the compound, how does the melting point read?
Answer: The melting point was 117 to 121 °C.

Question: With `CS(=O)(=O)c1ccc(-c2cc(C(F)(F)F)nn2-c2ccc(C#N)cc2)cc1F` as the compound, how does the melting point read?
Answer: Its melting point is 152 to 153 °C.

Question: With `CCOc1csc(N)c1C#N` as the compound, how does the melting point read?
Answer: The melting point was 145 to 146 °C.

Question: For `CC(C)(C)C1=NN(c2ccc(C(=O)O)cc2)C(c2ccccc2Cl)C1` (configuration not stated), which melting point is on record?
Answer: Its melting point is 229 °C.

Question: Which melting point does the source give for `CC(C)Cc1nn(C)c(=O)c2c(SCCCO)n(Cc3ccccc3)cc12` here?
Answer: The melting point was 91 to 92 °C.

Question: With `C=CCNc1c(F)cc2c(=O)c(C(=O)O)cn(-c3nc(N)c(F)cc3F)c2c1Cl` as the compound, how does the melting point read?
Answer: The melting point was 205 to 208 °C.

Question: With `CCCCCCCCCCCCCCCC1CN(C(=O)c2cc(OC)c(OC)c(OC)c2)CCN1C(=O)c1cc(OC)c(OC)c(OC)c1` (configuration not stated) as the compound, how does the melting point read?
Answer: Its melting point is 68 °C.

Question: With `CCOC(=O)c1ncn2c1c(=O)n(CC)c1ncccc12` as the compound, how does the melting point read?
Answer: The melting point was 216 to 217 °C.

Question: For `O=C(CC1CCCCC1)Nc1ccccc1`, which melting point is on record?
Answer: Its melting point is 126 to 128 °C.

Question: With `CC(C)Sc1sc(C(=O)N2CCCC2)c2c1-c1oncc1C(C)(C)C2` as the compound, how does the melting point read?
Answer: Its melting point is 88 to 91 °C.

Question: Which melting point does the source give for `Oc1ccc(C(c2ccc(O)cc2)c2ccccc2CN2CCN(c3ccccc3Cl)CC2)cc1` here?
Answer: The melting point was 149 to 151 °C.

Question: For `O=c1[nH]c2ccc(N3CCOCC3)cc2c(=O)o1`, which melting point is on record?
Answer: Its melting point is 235 °C.

Question: For `OCC(O)Cn1ncc2c(N(Cc3cccc(Cl)c3)C3CCCC3)ncnc21` (configuration not stated), which melting point is on record?
Answer: Its melting point is 98 to 100 °C.

Question: For `Cc1sc(C)c(CC#N)c1CC#N`, which melting point is on record?
Answer: Its melting point is 124 to 126 °C.

Question: Which melting point does the source give for `COc1ccc(N2C(=O)CCN(C)c3ccc(Cl)cc32)cc1` here?
Answer: Its melting point is 144 to 145 °C.

Question: Which melting point does the source give for `O=c1c2ccc(Cl)cc2[nH]n1Cc1ccccc1` here?
Answer: The melting point was 209 to 214 °C.

Question: For `N#Cc1ccc(Cn2cncn2)cc1-c1ccc(OS(N)(=O)=O)c(Cl)c1`, which melting point is on record?
Answer: Its melting point is 133 to 136 °C.

Question: For `CCCCCC(C)N(Cc1ccc(CC(C)(C)C)s1)C(Nc1ccc(OC)cc1OC)=C1C(=O)OC(C)(C)OC1=O` (configuration not stated), which melting point is on record?
Answer: Its melting point is 152 to 153 °C.

Question: With `CCn1ncnc1COc1nn2c(-c3ccccc3F)nncc2c1-c1cccs1` as the compound, how does the melting point read?
Answer: The melting point was 190 to 192 °C.

Question: With `CSc1nn2c(Cl)cc(C)nc2c1S(=O)(=O)c1ccc(C)cc1` as the compound, how does the melting point read?
Answer: Its melting point is 197 to 198 °C.

Question: With `CC(=O)Nc1c([N+](=O)[O-])cc([N+](=O)[O-])c2c1CCCC2` as the compound, how does the melting point read?
Answer: The melting point was 203 °C.

Question: For `CNc1nc(N)nc(N)n1`, which melting point is on record?
Answer: The melting point was 269 °C.

Question: Which melting point does the source give for `CCc1ncnc(O)c1I` here?
Answer: Its melting point is 191 to 192 °C.

Question: Which melting point does the source give for `CCOC(=O)c1ncn2c1[C@@H]1CCCN1C(=O)c1sccc1-2` here?
Answer: Its melting point is 212 to 213 °C.

Question: For `Cc1cc(Cl)cc(C(=O)NCC2(C)CC2)c1NC(=O)c1cc(C(F)(F)F)nn1-c1ncccc1Cl`, which melting point is on record?
Answer: The melting point was 210 °C.

Question: For `CCOC(=O)C1CCCN(c2ccc([N+](=O)[O-])c(C=C3NC(=O)NC3=O)c2)C1` (configuration not stated), which melting point is on record?
Answer: Its melting point is 223 to 225 °C.

Question: With `N[C@@H](Cc1ccc(N(CCCl)CCCl)cc1)C(=O)N[C@@H](Cc1cccc(C2CCCC2)c1)C(=O)O` as the compound, how does the melting point read?
Answer: The melting point was 80 to 90 °C.

Question: With `CNC(=O)C1SCSC(=NO)S1` (configuration not stated) as the compound, how does the melting point read?
Answer: The melting point was 129 to 130 °C.

Question: Which melting point does the source give for `Cc1cc(C(O)C(=O)c2ccccc2)c(C)c(C)c1C` (configuration not stated) here?
Answer: The melting point was 99 to 101 °C.

Question: Which melting point does the source give for `CC(=O)Nc1ccc(F)cc1OCCOc1ccc(N)cc1F` here?
Answer: The melting point was 134 to 136 °C.

Question: For `Cn1c(=O)[nH]c2ncccc2c1=O`, which melting point is on record?
Answer: Its melting point is 272 to 274 °C.

Question: For `O=C(O)[C@H](Cc1cncn1COCc1ccccc1)NS(=O)(=O)CCc1ccccc1`, which melting point is on record?
Answer: Its melting point is 223 to 233 °C.

Question: Which melting point does the source give for `CC1(C)OOC23CCCCC2CC(=O)OC3O1` (configuration not stated) here?
Answer: Its melting point is 106 to 107 °C.

Question: For `NC(=O)CNS(=O)(=O)c1ccc(CCN2CC=C(c3c[nH]cc3-c3ccncc3)CC2c2ccc(F)cc2)cc1` (configuration not stated), which melting point is on record?
Answer: The melting point was 230 to 233 °C.

Question: For `Cc1nc2n(c1C)N=C(c1ccc(N)cc1)c1cc3c(cc1C2)OCO3`, which melting point is on record?
Answer: Its melting point is 226 to 227 °C.

Question: Which melting point does the source give for `O=C(CCc1nc(-c2ccccn2)no1)NC1CCN(Cc2ccc(Cl)c(Cl)c2)CC1` here?
Answer: The melting point was 155 °C.

Question: For `CCn1c(OC(C)C)n[nH]c1=O`, which melting point is on record?
Answer: Its melting point is 69 to 70 °C.
